Assay [1] deals with T1, NEDD8-activating enzyme E1 regulatory subunit (Homo sapiens) (UniProt Q13564).
T1 sequence (whole entry): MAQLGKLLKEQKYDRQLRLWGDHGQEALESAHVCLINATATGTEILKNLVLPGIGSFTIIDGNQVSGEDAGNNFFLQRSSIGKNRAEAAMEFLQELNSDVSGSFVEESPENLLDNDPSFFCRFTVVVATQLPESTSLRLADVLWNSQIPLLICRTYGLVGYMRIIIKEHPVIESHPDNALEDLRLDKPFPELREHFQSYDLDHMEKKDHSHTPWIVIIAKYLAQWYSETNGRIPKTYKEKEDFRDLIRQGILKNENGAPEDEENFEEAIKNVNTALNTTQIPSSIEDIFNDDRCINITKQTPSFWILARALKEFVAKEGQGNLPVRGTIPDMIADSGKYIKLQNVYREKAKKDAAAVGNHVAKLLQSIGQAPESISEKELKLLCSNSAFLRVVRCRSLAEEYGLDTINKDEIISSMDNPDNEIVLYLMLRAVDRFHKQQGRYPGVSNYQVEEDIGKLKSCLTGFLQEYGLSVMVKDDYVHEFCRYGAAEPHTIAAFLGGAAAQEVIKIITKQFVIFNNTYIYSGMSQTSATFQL
Description: Activation of NAE1-mediated protein degradation in human HGC-27 cells assessed as decrease in c-IAPI level at 9 uM measured after 48 hrs in the presence of proteosome inhibitor, MG132 by western blot analysis. Format: cell-based.

In assay [2] the test system is MGC-803. Description: Induction of apoptosis in human MGC-803 cells at 3 uM measured after 48 hrs in the presence of NEDDylation inhibitor, MLN4924 by flow cytometry analysis. It counts as functional, cell-based.
The target of assay [3] is T1, NEDD8-activating enzyme E1 regulatory subunit (Homo sapiens). Description: Activation of NAE1-mediated neddylation in human HGC-27 cells assessed as increase in Cullin7-NEDD8 level incubated for 12 hrs by western blot analysis. Format: cell-based. The following applies: filed as agonist, dose 1-9 µM.
Assay [4] has as its system MGC-803. Description: Induction of G2/M phase arrest in human MGC-803 cells at 3 uM measured after 48 hrs in the presence of NEDDylation inhibitor, MLN4924 by flow cytometry. Format: functional, cell-based.
In assay [5] the test system is MGC-803. Description: Induction of G2/M phase arrest in human MGC-803 cells assessed as downregulation of CDK1 protein expression at 1 to 3 uM measured after 48 hrs by western blot analysis. It counts as functional, cell-based. To be noted: dose 1-3 µM.
Assay [6] deals with MGC-803. Description: Induction of G2/M phase arrest in human MGC-803 cells assessed as downregulation of p-Cdc2 protein expression at 1 to 3 uM measured after 48 hrs by western blot analysis. To be noted: dose 1-3 µM. It counts as functional, cell-based.
Assay [7] has as its system HGC-27. Description: Inhibition of colony formation in human HGC-27 cells assessed as reduction in number of colonies at 0.4 to 2 uM incubated for 7 days by crystal violet staining based assay. Format: functional, cell-based. The following applies: dose 0.4-2 µM, time 7.0 day.
Assay [8] deals with T1, NEDD8-activating enzyme E1 regulatory subunit (Homo sapiens). Description: Activation of NAE1-mediated neddylation in human MGC-803 cells assessed as increase in Ubc12-NEDD8 level incubated for 12 hrs by western blot analysis. Format: cell-based. To be noted: filed as agonist, dose 1-3 µM.
For assay [9], the system named is MGC-803. Description: Induction of apoptosis in human MGC-803 cells assessed as upregulation of Bax protein level at 1 to 3 uM measured after 48 hrs by western blot analysis. It counts as functional, cell-based. The following applies: dose 1-3 µM.
Assay [10] has as its target T1, NEDD8-activating enzyme E1 regulatory subunit (Homo sapiens). Description: Activation of NAE1 in human MGC-803 cells assessed as downregulation of YAP/TAZ level at 3 uM measured after 48 hrs in the presence of proteosome inhibitor, MG132 by western blot analysis. It counts as cell-based.
Assay [11] concerns HGC-27. Description: Induction of cell morphological changes in human HGC-27 cells assessed as rounding of nucleus at 1 to 9 uM measured after 48 hrs by DAPI staining based fluorescence analysis. It counts as functional. To be noted: dose 1-9 µM.
Assay [12] relates to HGC-27. Description: Induction of apoptosis in human HGC-27 cells assessed as upregulation of Bax protein level at 1 to 9 uM measured after 48 hrs by western blot analysis. To be noted: dose 1-9 µM. Format: functional, cell-based.
For assay [13], the system named is MGC-803. Description: Induction of cell morphological changes in human MGC-803 cells assessed as increase in dead cells by measuring red fluorescence at 1 to 3 uM incubated for 48 hrs by calcein-AM/PI staining based fluorescence analysis. It counts as functional. The following applies: dose 1-3 µM.

Activity calls are given as the source filed them. No cut-off for these calls is given here.

Take `COc1cc(-c2nc(NC(=O)CSC(=S)N3CCN(C(=O)OC(C)(C)C)CC3)nnc2-c2ccc(C)cc2)cc(OC)c1OC`: the result in assay [1], in [2], in [4] and in [10] was inactive. Also, the Activity result in assay [3] and in assay [8] was “Dose-Dependent Effect” in each case. In addition, the result in assay [5], in assay [6], in assay [9], in [11], in assay [12] and in assay [13] was Active. For the same molecule, the inhibition entry in assay [7] was “Active”.

The values above are taken from ChEMBL document CHEMBL4828752, “Discovery of 1,2,4-triazine dithiocarbamate derivatives as NEDDylation agonists to inhibit gastric cancers” (Eur J Med Chem, 2021).
